The numbers were not newly measured in patent US7928112B2, “Substituted 5,6,7,8-tetrahydropyrido[4,3-D]pyrimidines as dipeptidyl peptidase-IV inhibitors for the treatment or prevention of diabetes” (Merck Sharp & Dohme Corp., priority 2006, dated 2011), which cites them from elsewhere.

Series [1] deals with T1, DPP-4 (Rattus norvegicus, UniProt P14740).
T1 construct: host or cells: rats (in vivo)
The following applies: rats; survival doubled from day 7 to day 14.

The target of series [2] is T2, DPP-4 (Homo sapiens, UniProt P27487).
T2 construct: GRF is rapidly degraded in plasma to GRF[3-44]; from tissue; host or cells: plasma
T2 sequence (P27487 39-766 limits assumed, species assumed): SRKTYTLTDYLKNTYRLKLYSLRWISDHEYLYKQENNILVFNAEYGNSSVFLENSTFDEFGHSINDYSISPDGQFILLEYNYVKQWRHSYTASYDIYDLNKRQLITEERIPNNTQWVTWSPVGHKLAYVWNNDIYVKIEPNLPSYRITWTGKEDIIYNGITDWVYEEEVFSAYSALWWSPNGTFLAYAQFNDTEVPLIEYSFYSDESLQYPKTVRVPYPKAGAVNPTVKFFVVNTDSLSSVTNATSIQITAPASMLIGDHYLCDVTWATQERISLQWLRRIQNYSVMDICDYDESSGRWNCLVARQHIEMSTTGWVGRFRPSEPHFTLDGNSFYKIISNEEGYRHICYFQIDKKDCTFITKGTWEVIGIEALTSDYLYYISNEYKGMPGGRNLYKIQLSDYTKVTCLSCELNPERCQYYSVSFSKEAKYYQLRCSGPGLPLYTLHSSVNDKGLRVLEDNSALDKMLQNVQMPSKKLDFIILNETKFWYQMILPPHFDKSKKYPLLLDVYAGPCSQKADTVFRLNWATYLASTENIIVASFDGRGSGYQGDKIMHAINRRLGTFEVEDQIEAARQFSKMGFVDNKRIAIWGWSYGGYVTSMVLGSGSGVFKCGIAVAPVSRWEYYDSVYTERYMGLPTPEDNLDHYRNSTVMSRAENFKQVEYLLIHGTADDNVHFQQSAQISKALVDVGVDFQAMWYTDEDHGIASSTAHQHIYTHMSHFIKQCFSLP

Series [3] deals with T3, DPP-4 (Mus musculus, UniProt P28843).
T3 construct: host or cells: mouse (in vivo)
T3 sequence (P28843 whole entry): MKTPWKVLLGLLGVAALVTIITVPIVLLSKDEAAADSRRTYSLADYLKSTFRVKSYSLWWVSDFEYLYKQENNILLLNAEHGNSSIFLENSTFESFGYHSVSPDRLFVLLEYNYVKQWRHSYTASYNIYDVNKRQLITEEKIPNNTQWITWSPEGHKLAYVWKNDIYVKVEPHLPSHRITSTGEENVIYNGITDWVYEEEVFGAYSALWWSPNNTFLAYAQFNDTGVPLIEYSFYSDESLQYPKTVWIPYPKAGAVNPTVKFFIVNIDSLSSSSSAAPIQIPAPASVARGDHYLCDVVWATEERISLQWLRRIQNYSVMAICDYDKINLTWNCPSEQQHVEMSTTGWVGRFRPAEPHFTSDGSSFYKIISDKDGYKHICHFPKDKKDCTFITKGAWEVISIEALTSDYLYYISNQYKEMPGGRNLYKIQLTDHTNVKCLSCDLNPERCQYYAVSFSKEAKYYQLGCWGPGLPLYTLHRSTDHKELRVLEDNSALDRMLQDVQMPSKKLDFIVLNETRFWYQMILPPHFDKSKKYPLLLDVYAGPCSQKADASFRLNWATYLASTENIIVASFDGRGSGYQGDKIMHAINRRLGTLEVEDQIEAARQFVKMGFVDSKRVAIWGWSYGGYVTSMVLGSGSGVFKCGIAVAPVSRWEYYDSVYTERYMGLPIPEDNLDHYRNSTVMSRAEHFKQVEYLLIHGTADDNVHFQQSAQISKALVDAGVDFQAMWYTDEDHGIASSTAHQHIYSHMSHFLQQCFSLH
Particulars: cyclophosphamide-induced neutropenia.

T1 sequence (P14740 whole entry): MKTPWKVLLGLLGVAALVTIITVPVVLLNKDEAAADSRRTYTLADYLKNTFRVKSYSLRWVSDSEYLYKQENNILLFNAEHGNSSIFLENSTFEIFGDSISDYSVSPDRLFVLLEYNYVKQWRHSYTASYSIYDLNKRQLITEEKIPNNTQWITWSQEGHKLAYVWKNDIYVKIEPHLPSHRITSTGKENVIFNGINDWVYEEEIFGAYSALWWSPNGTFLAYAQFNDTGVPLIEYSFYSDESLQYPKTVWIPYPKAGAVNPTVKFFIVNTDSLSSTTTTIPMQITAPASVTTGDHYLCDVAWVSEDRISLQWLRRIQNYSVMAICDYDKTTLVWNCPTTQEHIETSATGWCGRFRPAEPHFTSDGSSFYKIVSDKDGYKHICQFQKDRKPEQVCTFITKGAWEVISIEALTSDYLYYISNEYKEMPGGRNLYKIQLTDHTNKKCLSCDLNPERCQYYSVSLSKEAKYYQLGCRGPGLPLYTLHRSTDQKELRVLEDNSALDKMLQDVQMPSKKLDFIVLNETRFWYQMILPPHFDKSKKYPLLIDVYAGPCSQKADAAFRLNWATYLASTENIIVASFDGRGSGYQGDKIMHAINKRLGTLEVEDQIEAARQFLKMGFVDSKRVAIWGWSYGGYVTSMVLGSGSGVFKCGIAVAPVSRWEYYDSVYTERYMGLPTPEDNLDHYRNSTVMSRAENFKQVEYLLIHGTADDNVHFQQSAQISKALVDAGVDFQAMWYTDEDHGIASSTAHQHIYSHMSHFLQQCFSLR

Regarding `CC(C)N1CCC(c2ccccc2)(c2ccccc2)CC1` [Prodipine, Pro-Pro-diphenyl-phosphonate], the cardiac allograft survival in series [1] is 14 day.
With `CC[C@H](C)[C@H](N)C(=O)N1CCC[C@H]1C(=O)N[C@H](C(=O)O)[C@@H](C)CC` [diprotin A], the “degradation of GRF to GRF[3-44] in plasma” value in series [2] is listed as “prevented”.
In the case of `CC(C)[C@H](N)C(=O)N1CCC[C@H]1B(O)O` [Val-Boro-Pro], in series [3], the hematopoiesis entry is “stimulated hematopoiesis”.
